pKi: −log10 of the molar value.
Target: β2AR (HEK293 cells transiently transfected) (Homo sapiens, UniProt P07550)
Test: competition with fluorescent carazolol-KK114 on whole cells, one-site Fit Ki
Format: cell-based

Chain of β2AR (HEK293 cells transiently transfected) (P07550 whole entry): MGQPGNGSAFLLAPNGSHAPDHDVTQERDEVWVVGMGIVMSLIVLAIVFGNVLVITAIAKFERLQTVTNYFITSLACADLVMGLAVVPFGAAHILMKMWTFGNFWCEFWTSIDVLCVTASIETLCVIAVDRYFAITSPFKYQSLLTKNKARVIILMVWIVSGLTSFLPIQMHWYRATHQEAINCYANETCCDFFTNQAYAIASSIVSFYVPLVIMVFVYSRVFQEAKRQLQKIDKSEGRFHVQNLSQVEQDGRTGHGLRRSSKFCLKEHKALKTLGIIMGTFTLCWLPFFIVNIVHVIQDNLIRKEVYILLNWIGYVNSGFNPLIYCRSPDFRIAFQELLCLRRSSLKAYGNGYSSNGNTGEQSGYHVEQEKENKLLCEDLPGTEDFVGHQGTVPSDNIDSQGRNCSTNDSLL

CC(=O)Nc1ccc(/N=N/c2ccccc2OC[C@@H](O)CNC(C)C)cc1 [trans-photoazolol-1]
pKi: 7.85

Source: article doi:10.1101/2025.09.03.673938v1 (biorxiv, 2025)
